Read-outs that look alike come from different tables or passages of the source. Square brackets hold non-standard residues; d marks the D form. Ends that are not written are not given here. Peptide text beside a SMILES is read from it. Sar = CNCC(=O)O
How the values were obtained:
Gardnerella = Gardnerella growth inhibition; assay type: cell-based
Protocol: The plates were then incubated at 37° C. overnight and then the plates were read on a spectrophotometer at an absorbance of OD600 nm to determine the turbidity of the solution. Decreased turbidity is indicative of inhibition of bacterial growth.
Complement activation was assayed by measuring the production of C5a using ELISA methodology. […] The associated inflammation causes the symptoms of bacterial vaginosis and increases the risk of HIV-transmission by disrupting normal barrier defenses in the vagina.

[1] = assay type: biochemical, human; settings: 0.77 mM peptide in factor B-depleted serum
Protocol: (§1) Peptides were diluted to 0.77 mM in factor B-depleted human sera (Complement Technologies, Inc.) and incubated for 1 hour at 37° C. These peptides were then diluted with GVBS^++ to equal 2.5% serum, of which 0.25 ml was combined with 0.4 ml of GVBS^++ and 0.1 ml of sensitized sheep red blood cells (RBCs) and again incubated for 1 hour at 37° C. The procedure was stopped by the addition of 4.0 ml of GVBS^−− centrifuged for 5 minutes at 1,620×g, and the absorbance of the supernatants was read at 412 nm in a spectrophotometer. The percent lysis of each sample was standardized to that of the serum only control.
(§2) The final concentration of peptide in factor B-depleted serum was 0.77 mM. Each peptide was evaluated in triplicate and the mean values are reported. […] In the hemolytic assay, soluble peptides are standardized to water and insoluble peptides standardized to DMSO.
(§3) Polar Assortant peptides were serially diluted in undiluted factor B-depleted human sera (Complement Technologies, Inc.) and incubated for 1 hour at 37° C. Water, GVBS^++ and DMSO were included as controls. These peptides were then diluted with GVBS^++ to equal 2.5% serum, of which 0.25 ml was combined with 0.4 ml of GVBS^++ and 0.1 ml of sensitized sheep red blood cells (RBCs) and again incubated for 1 hour at 37° C. The procedure was stopped by the addition of 4.0 ml of GVBS^−−, centrifuged for 5 minutes at 1,620×g, and the absorbance of the supernatants was read at 412 nm in a spectrophotometer. The percent lysis of each sample was standardized to that of the serum only control.
(§4) The final concentration of peptide in factor B-depleted serum was 0.77 mM. […] In the hemolytic assay, soluble peptides were standardized to water and insoluble peptides standardized to DMSO.
(§5) The final concentration of peptide in factor B-depleted serum was 0.77 mM. […] In the hemolytic assay, soluble peptides are standardized to water and insoluble peptides standardized to DMSO.

Solubility in water = assay type: physicochemical
[2] = system: complement activation in factor B-depleted human sera; assay type: biochemical; settings: for Complement inhibition in hemolytic assay: factor B-depleted serum
Protocol: as §1, §2, §3, §4, §5

[3] = Complement-mediated hemolysis of type B erythrocytes by type O donor plasma (ATR in vitro model); assay type: biochemical, human; settings: highly hemolytic type-O plasma, dose-response, maximum
Protocol: Plasma from both donors were diluted with GVBS++ (veronal buffered saline with 0.1% gelatin, 0.15 mM CaCl2 and 1 mM MgCl2) and incubated with purified erythrocytes from a B+ donor at 37° C. for 1 hour. Free hemoglobin was measured by spectrophotometer at 412 nm.

[4] = Single-dose toxicology, maximum deliverable dose; assay type: in vivo, rat; settings: 60 mg [240 mg/kg] i.v.
[5] = 40 mg [160 mg/kg] i.v.
Excerpt: Eight animals were sacrificed at day 3, and ten were sacrificed at day 14.

[6] = standardized to water or DMSO, Table 6

CC[C@H](C)[C@H](N)C(=O)N[C@@H](C)C(=O)N[C@@H](CC(C)C)C(=O)N(C)CC(=O)N[C@@H](CC(C)C)C(=O)N[C@@H](CCC(=O)O)C(=O)N1CCC[C@H]1C(=O)N[C@H](C(=O)N[C@@H](CS)C(=O)N[C@@H](CS)C(=O)N[C@@H](CCC(N)=O)C(=O)N[C@@H](CCC(=O)O)C(=O)N[C@@H](CCCNC(=N)N)C(=O)N[C@@H](C)C(=O)N[C@@H](C)C(=O)O)[C@@H](C)CC [PA-I4Sar] (H-IAL[Sar]LEPICCQERAA-OH)
Inhibition of Gardnerella growth (Gardnerella): inhibited the growth

CC[C@H](C)[C@H](N)C(=O)N[C@@H](C)C(=O)N(C)CC(=O)N[C@H](C(=O)N[C@@H](CC(C)C)C(=O)N[C@@H](CCC(=O)O)C(=O)N1CCC[C@H]1C(=O)N[C@H](C(=O)N[C@@H](CS)C(=O)N[C@@H](CS)C(=O)N[C@@H](CCC(N)=O)C(=O)N[C@@H](CCC(=O)O)C(=O)N[C@@H](CCCNC(=N)N)C(=O)N[C@@H](C)C(=O)N[C@@H](C)C(=O)O)[C@@H](C)CC)[C@@H](C)CC [PA-L3Sar] (H-IA[Sar]ILEPICCQERAA-OH)
Inhibition of Gardnerella growth (Gardnerella): inhibited the growth

CC[C@H](C)[C@H](N)C(=O)N[C@@H](C)C(=O)N[C@@H](CC(C)C)C(=O)N[C@H](C(=O)N(C)CC(=O)N[C@@H](CCC(=O)O)C(=O)N1CCC[C@H]1C(=O)N[C@H](C(=O)N[C@@H](CS)C(=O)N[C@@H](CS)C(=O)N[C@@H](CCC(N)=O)C(=O)N[C@@H](CCC(=O)O)C(=O)N[C@@H](CCCNC(=N)N)C(=O)N[C@@H](C)C(=O)N[C@@H](C)C(=O)O)[C@@H](C)CC)[C@@H](C)CC [PA-L5Sar] (H-IALI[Sar]EPICCQERAA-OH)
Inhibition of Gardnerella growth (Gardnerella): inhibited the growth

CC[C@H](C)[C@H](NC(=O)[C@H](CC(C)C)NC(=O)[C@H](C)N)C(=O)N[C@@H](CC(C)C)C(=O)N[C@@H](CCC(=O)O)C(=O)N1CCC[C@H]1C(=O)N[C@H](C(=O)N[C@@H](CS)C(=O)N[C@@H](CS)C(=O)N(C)CC(=O)N[C@@H](CCC(=O)O)C(=O)N[C@@H](CCCNC(=N)N)C(=O)N[C@@H](C)C(=O)N[C@@H](C)C(=O)O)[C@@H](C)CC [PA-Q11Sar] (H-ALILEPICC[Sar]ERAA-OH; N-terminus and C-terminus assumed)
hemolysis ([1]; human, mean of triplicate, standardized to water (soluble) or DMSO (insoluble)): 3.02%
Solubility in water (Solubility in water; Table 5, sarcosine substitution peptides): No

CC[C@H](C)[C@H](N)C(=O)N[C@@H](C)C(=O)N[C@@H](CC(C)C)C(=O)N[C@H](C(=O)N[C@@H](CC(C)C)C(=O)N[C@@H](CCC(=O)O)C(=O)N1CCC[C@H]1C(=O)N[C@H](C(=O)N[C@@H](CS)C(=O)N[C@@H](CS)C(=O)N[C@@H](CCC(N)=O)C(=O)N[C@@H](CCC(=O)O)C(=O)N[C@@H](CCCNC(=N)N)C(=O)N[C@@H](C)C(=O)N[C@@H](C)C(=O)NCCOCCOCCOCCOCCOCCOCCOCCOCCOCCOCCOCCOCCC(=O)O)[C@@H](C)CC)[C@@H](C)CC [PA-dPEG12]
hemolysis [1, 6]: 11.4%

CC[C@H](C)[C@H](N)C(=O)N[C@@H](C)C(=O)N[C@@H](CC(C)C)C(=O)N[C@H](C(=O)N[C@@H](CC(C)C)C(=O)N[C@@H](CCC(=O)O)C(=O)N1CCC[C@H]1C(=O)N[C@H](C(=O)N[C@@H](CS)C(=O)N[C@@H](CS)C(=O)N[C@@H](CCC(N)=O)C(=O)N[C@@H](CCC(=O)O)C(=O)N[C@@H](CCCNC(=N)N)C(=O)N[C@@H](C)C(=O)N[C@@H](C)C(=O)NCCOCCOCCOCCOCCOCCOCCOCCOCCOCCOCCOCCOCCOCCOCCOCCOCCC(=O)O)[C@@H](C)CC)[C@@H](C)CC [PA-dPEG16]
hemolysis [1, 6]: 12%

CC[C@H](C)[C@H](N)C(=O)N[C@@H](C)C(=O)N[C@@H](CC(C)C)C(=O)N[C@H](C(=O)N[C@@H](CC(C)C)C(=O)N[C@@H](CCC(=O)O)C(=O)N1CCC[C@H]1C(=O)N[C@H](C(=O)N[C@@H](CS)C(=O)N[C@@H](CS)C(=O)N[C@@H](CCC(N)=O)C(=O)N[C@@H](CCC(=O)O)C(=O)N[C@@H](CCCNC(=N)N)C(=O)N[C@@H](C)C(=O)N[C@@H](C)C(=O)NCCOCCOCCOCCOCCOCCOCCOCCOCCOCCOCCOCCOCCOCCOCCOCCOCCOCCOCCOCCOCCC(=O)O)[C@@H](C)CC)[C@@H](C)CC [PA-dPEG20]
hemolysis [1, 6]: 11.4%

CC[C@H](C)[C@H](N)C(=O)N[C@@H](C)C(=O)N[C@@H](CC(C)C)C(=O)N[C@H](C(=O)N[C@@H](CC(C)C)C(=O)N[C@@H](CCC(=O)O)C(=O)N1CCC[C@H]1C(=O)N[C@H](C(=O)N[C@@H](CS)C(=O)N[C@@H](CS)C(=O)N[C@@H](CCC(N)=O)C(=O)N[C@@H](CCC(=O)O)C(=O)N[C@@H](CCCNC(=N)N)C(=O)N[C@@H](C)C(=O)N[C@@H](C)C(=O)NCCOCCOCCOCCOCCOCCOCCOCCOCCOCCOCCOCCOCCOCCOCCOCCOCCOCCOCCOCCOCCOCCOCCOCCOCCC(=O)O)[C@@H](C)CC)[C@@H](C)CC [PA-dPEG24]
hemolysis [1, 6]: 2.99%
Hemolysis (%) ([2]; 0.77 mM peptide in factor B-depleted serum, standardized to water or DMSO, Table 7): 2.99%
Solubility in water (Solubility in water; Table 7, PEGylated and Sar/Ala substitution peptides): Yes
percent inhibition of hemolysis [3]: > 95%
ALT ([4]; 48 Hr (n = 6)): 44.0 U/L
AST ([4]; 48 Hr (n = 6)): 69.0 U/L
AlkPhos ([4]; 48 Hr (n = 6)): 194 U/L
BUN ([4]; 48 Hr (n = 6)): 15.8 mg/dL
Bilirubin ([4]; 48 Hr (n = 6)): 0.1 mg/dL
CPK ([4]; 48 Hr (n = 6)): 142 U/L
Creatinine ([4]; 48 Hr (n = 6)): 0.3 mg/dL
GGT ([4]; 48 Hr (n = 6)): 1 U/L
Lipase ([4]; 48 Hr (n = 6)): 10.3 U/L
Platelets ([4]; 48 Hr (n = 6)): 1045 10^3/μL
RBC ([4]; 48 Hr (n = 6)): 5.3 10^6/μL
ALT ([4]; Day 7 (n = 6)): 76.3 U/L
AST ([4]; Day 7 (n = 6)): 84.3 U/L
AlkPhos ([4]; Day 7 (n = 6)): 147 U/L
BUN ([4]; Day 7 (n = 6)): 13.5 mg/dL
Bilirubin ([4]; Day 7 (n = 6)): 0.1 mg/dL
CPK ([4]; Day 7 (n = 6)): 316 U/L
Creatinine ([4]; Day 7 (n = 6)): 0.4 mg/dL
GGT ([4]; Day 7 (n = 6)): 1 U/L
Lipase ([4]; Day 7 (n = 6)): 8.5 U/L
Platelets ([4]; Day 7 (n = 6)): 623 10^3/μL
RBC ([4]; Day 7 (n = 6)): 5.8 10^6/μL
ALT ([4]; Day 14 (n = 6)): 55.8 U/L
AST ([4]; Day 14 (n = 6)): 104 U/L
AlkPhos ([4]; Day 14 (n = 6)): 154 U/L
BUN ([4]; Day 14 (n = 6)): 14.7 mg/dL
Bilirubin ([4]; Day 14 (n = 6)): 0.1 mg/dL
CPK ([4]; Day 14 (n = 6)): 580 U/L
Creatinine ([4]; Day 14 (n = 6)): 0.4 mg/dL
GGT ([4]; Day 14 (n = 6)): 1 U/L
Lipase ([4]; Day 14 (n = 6)): 9.7 U/L
Blood work (CBC and complete blood chemistry) toxicities ([4]; first 24 hours, 48 hours, day 7 or day 14): No toxicities
ALT ([5]; 48 Hr (n = 8)): 62.8 U/L
AST ([5]; 48 Hr (n = 8)): 108 U/L
AlkPhos ([5]; 48 Hr (n = 8)): 104 U/L
BUN ([5]; 48 Hr (n = 8)): 17.8 mg/dL
Bilirubin ([5]; 48 Hr (n = 8)): 0.1 mg/dL
CPK ([5]; 48 Hr (n = 8)): 538 U/L
Creatinine ([5]; 48 Hr (n = 8)): 0.3 mg/dL
GGT ([5]; 48 Hr (n = 8)): 1.0 U/L
Lipase ([5]; 48 Hr (n = 8)): 11.8 U/L
Platelets ([5]; 48 Hr (n = 8)): 987 10^3/μL
RBC ([5]; 48 Hr (n = 8)): 5.8 10^6/μL
ALT ([5]; Day 14 (n = 10)): 77.4 U/L
AST ([5]; Day 14 (n = 10)): 111 U/L
AlkPhos ([5]; Day 14 (n = 10)): 115 U/L
BUN ([5]; Day 14 (n = 10)): 13.2 mg/dL
Bilirubin ([5]; Day 14 (n = 10)): 0.1 mg/dL
CPK ([5]; Day 14 (n = 10)): 592 U/L
Creatinine ([5]; Day 14 (n = 10)): 0.3 mg/dL
GGT ([5]; Day 14 (n = 10)): 1.1 U/L
Lipase ([5]; Day 14 (n = 10)): 6.4 U/L
Platelets ([5]; Day 14 (n = 10)): 825 10^3/μL
RBC ([5]; Day 14 (n = 10)): 6.6 10^6/μL
Organ histology ([5]; day 3 and day 14): no histological evidence for toxicity
Blood chemistry assay results (CBC, superchem, coagulation) ([5]; pretreatment vs day 3 or day 14): no differences

CC[C@H](C)[C@H](N)C(=O)N[C@@H](C)C(=O)N[C@@H](CC(C)C)C(=O)N[C@H](C(=O)N[C@@H](CC(C)C)C(=O)N[C@@H](CCC(=O)O)C(=O)N1CCC[C@H]1C(=O)N[C@H](C(=O)N[C@@H](CS)C(=O)N[C@@H](CS)C(=O)N[C@@H](CCC(N)=O)C(=O)N[C@@H](CCC(=O)O)C(=O)N[C@@H](CCCNC(=N)N)C(=O)N[C@@H](C)C(=O)N[C@@H](C)C(=O)O)[C@@H](C)CC)[C@@H](C)CC [PA]
hemolysis ([1]; mean of triplicate, standardized to water (soluble) or DMSO (insoluble)): 3.15%

dPEG24-IALILEPICCQERAA (cysteine pairing not given here) [dPEG24-PA]
Complement inhibition in hemolytic assay [2]: varying degrees of complement inhibition

dPEG24-IALILEPICCQERAA-dPEG24 (cysteine pairing not given here) [dPEG24-PA-dPEG24]
Complement inhibition in hemolytic assay [2]: varying degrees of complement inhibition
